Measured values published in US20220153732A1, “PROTEIN SECRETION INHIBITORS” (KEZAR LIFE SCIENCES, priority 2019, published 2022).
pEC50, pIC50: −log10 of the molar value. Read-outs that look alike come from different tables or passages of the source.

Assays:
Type in all cases: cell-based
[1] = tested on: PD1-ss+10aa/Gaussia Luciferase; assay: Dox-Induced PD1-ss-Gluc Assay; settings: 293FRT/TO cells, read-out: 24 hr Dox Inducible PD1ssGluc 293FRT/TO: Mean IC50
Procedure: (§1) Transfected cells were selected for resistance to the selectable markers Hygromycin and Blasticidin to create a stable cell line that contained the PD1-ss+10aa/Gaussia Luciferase cDNA insert whose expression was regulated under the T-REx™ system. The day before assay, cells were trypsinized and plated in 384-well tissue culture plates. The next day, compound dilutions in DMSO/media containing doxycycline were added to the wells and incubated at 37° C., 5% CO2.
(§2) For chemical structures that include one or more stereoisomers, but are illustrated without indicating stereochemistry, the assay data refers to a mixture of stereoisomers.

[2] = tested on: TNFα-FL/Gaussia Luciferase; assay: Dox Induced TNFα-FL-Gluc Assay; settings: 293FRT/TO cells, read-out: 24 hr Dox Inducible TNFaFLGluc 293FRT/TO: Mean IC50
Procedure: as §1, with “TNFα-FL/Gaussia” for “PD1-ss+10aa/Gaussia”, “T-RExTM” for “T-REx™”, “CO2. […] For chemical structures that include one or more stereoisomers, but are illustrated without indicating stereochemistry, the assay data refers to a mixture of stereoisomers.” for “CO2.”

[3] = tested on: HER3-ss+4aa/Gaussia Luciferase; assay: Dox-Induced Her3-ss-Gluc Assay; settings: 293FRT/TO cells, read-out: 24 hr Dox Inducible Her3(ss + 4)Gluc 293FRT/TO: Mean IC50
Procedure: as §1, with “HER3-ss+4aa/Gaussia” for “PD1-ss+10aa/Gaussia”
as §2

[4] = tested on: IL-2-FL/Gaussia Luciferase; assay: Dox Induced IL2-FL-Gluc Assay; settings: 293FRT/TO cells, read-out: 24 hr Dox Inducible IL2FLGIuc 293FRT/TO: Mean IC50
Procedure: as §1, with “IL-2-FL/Gaussia” for “PD1-ss+10aa/Gaussia”, “T-RExTM” for “T-REx™”, “CO2. […] For chemical structures that include one or more stereoisomers, but are illustrated without indicating stereochemistry, the assay data refers to a mixture of stereoisomers.” for “CO2.”

[5] = tested on: human multiple myeloma cell line NCI-H929; assay: H929 Cell Viability Assay; settings: read-out: 48 hr H929 Viability Celltiter-Glo: Mean EC50
Procedure: (§3) Plates were incubated at 37° C., 5% CO2 for 48 hours. After 48 hours, Celltiter-Glo® (Promega) was added to each well and luciferase signal was quantified using Tecan Infinite M1000 Pro for cell viability determination.
as §2

[6] = tested on: human multiple myeloma cell line U266B1; assay: U266 Cell Viability Assay; settings: read-out: 48 hr U266 Viability Celltiter-Glo: Mean EC50
Procedure: as §3, with “Cells were plated in 384-well tissue culture plates and treated with compound dilutions in DMSO/media. Plates” for “Plates”
as §2

[7] = 48 hr, NCI-H929 cells, Celltiter-Glo
[8] = U-266, 48 hr, U266B1 cells, Celltiter-Glo
[9] = 24 hr doxycycline induction, Gaussia luciferase signal

| Structure (SMILES) | pIC50 ([1]; 24 hr, doxycycline-induced) | pIC50 ([2]; 24 hr, doxycycline-induced) | pIC50 ([3]; 24 hr, doxycycline-induced) | pIC50 ([4]; 24 hr, doxycycline-induced) | pEC50 [5, 7] | pEC50 [6, 8] | pIC50 [1, 9] | pIC50 [2, 9] | pIC50 [3, 9] | pIC50 [4, 9] | pEC50 ([5]; NCI-H929, 48 h) | pEC50 ([6]; U-266, 48 h) |
| --- | --- | --- | --- | --- | --- | --- | --- | --- | --- | --- | --- | --- |
| N#Cc1ccc(/C=C/c2csc(NC(=O)c3cccn3Cc3ccncc3)n2)nc1 [Compound A341] | 7.33 | < 4.60 | < 4.60 | < 4.60 | < 4.60 | < 4.60 | – | – | – | – | – | – |
| CNC(=O)c1ccc(/C=C/c2csc(NC(=O)c3cccn3Cc3ccncc3)n2)cc1 [Compound A239] | – | – | – | – | < 4.60 | < 4.60 | 5.82 | < 4.60 | < 4.60 | < 4.60 | – | – |
| Cc1nc(NC(=O)c2cccn2Cc2ccncc2)sc1F [Compound A42] | – | – | – | – | < 4.60 | < 4.60 | 6.03 | < 4.60 | 5.66 | 5.42 | – | – |
| Cc1csc(NC(=O)c2cccn2Cc2ccncc2)n1 [Compound A63, N-(4-methylthiazol-2-yl)-1-(pyridin-4-ylmethyl)-1H-pyrrole-2-carboxamide] | – | – | – | – | < 4.60 | < 4.60 | 5.77 | < 4.60 | 4.97 | < 4.60 | – | – |
| O=C(Nc1ncc(Cc2ccccc2)s1)c1cccn1Cc1ccncc1 [Compound A34, N-(5-benzylthiazol-2-yl)-1-(pyridin-4-ylmethyl)-1H-pyrrole-2-carboxamide] | – | – | – | – | < 4.60 | < 4.60 | 6.17 | < 4.60 | 5.62 | 5.37 | – | – |
| O=C(Nc1nc(C2CC2)cs1)c1cccn1Cc1ccncc1 [Compound A51] | – | – | – | – | < 4.60 | < 4.60 | 5.89 | < 4.60 | 5.47 | 5.53 | – | – |
| CC(C)OC(C)(C)c1csc(NC(=O)c2cccn2[C@@H](C)c2ccncc2)n1 [Compound A74, (S)-N-(4-(2-isopropoxypropan-2-yl)thiazol-2-yl)-1-(1-(pyridin-4-yl)ethyl)-1H-pyrrole-2-carboxamide] | – | – | – | – | < 4.60 | < 4.60 | 5.59 | < 4.60 | 5.27 | 5.37 | – | – |
| CC(C)OC(C)(C)c1csc(NC(=O)[C@@H]2CCCN2Cc2ccncc2)n1 [Compound A130, (S)-N-(4-(2-isopropoxypropan-2-yl)thiazol-2-yl)-1-(pyridin-4-ylmethyl)pyrrolidine-2-carboxamide] | – | – | – | – | < 4.60 | – | < 4.60 | < 4.60 | < 4.60 | < 4.60 | – | – |
| O=C(Nc1nc2c(s1)CCCC2)c1cccn1Cc1ccncc1 [Compound A52] | – | – | – | – | < 4.60 | < 4.60 | 5.87 | < 4.60 | 5.55 | 5.71 | – | – |
| CC(C)OC(C)c1csc(NC(=O)c2cccn2Cc2ccncc2)n1 (stereo not drawn) [Compound A28, N-(4-(1-isopropoxyethyl)thiazol-2-yl)-1-(pyridin-4-ylmethyl)-1H-pyrrole-2-carboxamide] | – | – | – | – | < 4.60 | < 4.60 | 6.34 | 5.40 | 6.12 | 6.40 | – | – |
| O=C(Nc1nc([C@H]2CCN(Cc3ccccc3)C2)cs1)c1cccn1Cc1ccncc1 [Compound A279] | – | – | – | – | < 4.60 | < 4.60 | 5.95 | < 4.60 | 5.38 | 5.30 | – | – |
| CCc1nc(NC(=O)c2cc3cc(Cl)ccc3n2Cc2ccncc2)sc1C [Compound B29, 5-chloro-N-(4-ethyl-5-methylthiazol-2-yl)-1-(pyridin-4-ylmethyl)-1H-indole-2-carboxamide] | < 4.60 | < 4.60 | – | < 4.60 | – | – | – | – | – | – | < 4.60 | < 4.60 |
| CC(C)(C)c1csc(NC(=O)c2cc3cc(Cl)ccc3n2Cc2ccncc2)n1 [Compound B28, N-(4-(tert-butyl)thiazol-2-yl)-5-chloro-1-(pyridin-4-ylmethyl)-1H-indole-2-carboxamide] | < 4.60 | < 4.60 | – | < 4.60 | – | – | – | – | – | – | 4.63 | < 4.60 |

Further lines, with some results ahead:

| pIC50 ([1]; 24 hr, doxycycline-induced) | pIC50 ([2]; 24 hr, doxycycline-induced) | pIC50 ([3]; 24 hr, doxycycline-induced) | pIC50 ([4]; 24 hr, doxycycline-induced) | pEC50 [5, 7] | pEC50 [6, 8] | pIC50 [1, 9] | pIC50 [2, 9] | pIC50 [3, 9] | pIC50 [4, 9] | Structure (SMILES) | pEC50 ([5]; NCI-H929, 48 h) | pEC50 ([6]; U-266, 48 h) |
| --- | --- | --- | --- | --- | --- | --- | --- | --- | --- | --- | --- | --- |
| 5.52 | < 4.60 | 4.95 | 4.65 | < 4.60 | < 4.60 | – | – | – | – | CC(C)(C)c1cc(NC(=O)c2cccn2Cc2ccncc2)no1 [Compound B4, N-(5-(tert-butyl)isoxazol-3-yl)-1-(pyridin-4-ylmethyl)-1H-pyrrole-2-carboxamide] | – | – |
| – | – | – | – | < 4.67 | < 4.60 | 6.61 | 5.45 | 6.37 | 6.03 | O=C(Nc1nc(/C=C/Cc2ccccc2)cs1)c1cccn1CCCc1ccncc1 [Compound A217, N-(4-(3-phenylprop-1-en-1-yl)thiazol-2-yl)-1-(3-(pyridin-4-yl)propyl)-1H-pyrrole-2-carboxamide] | – | – |
| – | – | – | – | 4.82 | < 4.70 | 7.05 | 5.80 | 6.37 | 6.21 | COc1ccc(C#Cc2csc(NC(=O)c3cccn3Cc3ccncc3)n2)cc1 [Compound A143] | – | – |
| – | – | – | – | 4.60 | < 4.60 | 7.18 | 5.34 | 6.25 | 5.98 | CN(C)c1ccc(/C=C/c2csc(NC(=O)c3cccn3Cc3ccncc3)n2)cc1 [Compound A229] | – | – |
| – | – | – | – | < 4.60 | < 4.60 | 5.96 | 4.60 | 5.66 | 5.51 | Cc1sc(NC(=O)c2cccn2Cc2ccncc2)nc1C1CC1 [Compound A47] | – | – |
| – | – | – | – | < 4.60 | < 4.60 | < 4.60 | < 4.60 | < 4.60 | < 4.60 | CC(C)OC(C)(C)c1csc(NC(=O)C2CCCC(=O)N2Cc2ccncc2)n1 (stereo not drawn) [Compound A102, N-(4-(2-isopropoxypropan-2-yl)thiazol-2-yl)-6-oxo-1-(pyridin-4-ylmethyl)piperidine-2-carboxamide] | – | – |
| – | – | – | – | < 4.60 | < 4.60 | 5.20 | < 4.60 | 5.05 | < 4.60 | O=C(Nc1nc(N2CCN(c3ccccc3)CC2)cs1)c1cccn1Cc1ccncc1 [Compound A266] | – | – |
| 6.66 | 5.41 | 6.32 | 5.99 | 4.72 | < 4.60 | – | – | – | – | O=C(Nc1nc([C@H]2C[C@@H](Oc3ccccc3)C2)cs1)c1cccn1Cc1ccncc1 [Compound A330] | – | – |
| – | – | – | – | 4.67 | < 4.60 | 6.42 | 5.28 | 6.02 | 5.98 | O=C(Nc1nc(C2(OCc3ccccc3)CC2)cs1)c1cccn1Cc1ccncc1 [Compound A263, N-(4-(1-(benzyloxy)cyclopropyl)thiazol-2-yl)-1-(pyridin-4-ylmethyl)-1H-pyrrole-2-carboxamide] | – | – |
| 7.17 | < 4.60 | 6.02 | 5.86 | 4.62 | < 4.60 | – | – | – | – | O=C(Nc1nc(/C=C/c2ccc(F)cn2)cs1)c1cccn1Cc1ccncc1 [Compound A342] | – | – |
